These results are taken from patent US12492188B2, “1H-benzo[D]imidazole derivatives as TLR9 inhibitors for the treatment of fibrosis” (BRISTOL-MYERS SQUIBB COMPANY, priority 2020, dated 2025).

Molecules are shown by their SMILES. Like-named read-outs stand apart in the source and are kept apart here.

Format in all cases: cell-based
The target in one assay is T1, human TLR7 (Homo sapiens, UniProt Q9NYK1).
T1 construct: host or cells: HEK-Blue cells (HEK293-derived reporter line)
T1 sequence (Q9NYK1 27-1049): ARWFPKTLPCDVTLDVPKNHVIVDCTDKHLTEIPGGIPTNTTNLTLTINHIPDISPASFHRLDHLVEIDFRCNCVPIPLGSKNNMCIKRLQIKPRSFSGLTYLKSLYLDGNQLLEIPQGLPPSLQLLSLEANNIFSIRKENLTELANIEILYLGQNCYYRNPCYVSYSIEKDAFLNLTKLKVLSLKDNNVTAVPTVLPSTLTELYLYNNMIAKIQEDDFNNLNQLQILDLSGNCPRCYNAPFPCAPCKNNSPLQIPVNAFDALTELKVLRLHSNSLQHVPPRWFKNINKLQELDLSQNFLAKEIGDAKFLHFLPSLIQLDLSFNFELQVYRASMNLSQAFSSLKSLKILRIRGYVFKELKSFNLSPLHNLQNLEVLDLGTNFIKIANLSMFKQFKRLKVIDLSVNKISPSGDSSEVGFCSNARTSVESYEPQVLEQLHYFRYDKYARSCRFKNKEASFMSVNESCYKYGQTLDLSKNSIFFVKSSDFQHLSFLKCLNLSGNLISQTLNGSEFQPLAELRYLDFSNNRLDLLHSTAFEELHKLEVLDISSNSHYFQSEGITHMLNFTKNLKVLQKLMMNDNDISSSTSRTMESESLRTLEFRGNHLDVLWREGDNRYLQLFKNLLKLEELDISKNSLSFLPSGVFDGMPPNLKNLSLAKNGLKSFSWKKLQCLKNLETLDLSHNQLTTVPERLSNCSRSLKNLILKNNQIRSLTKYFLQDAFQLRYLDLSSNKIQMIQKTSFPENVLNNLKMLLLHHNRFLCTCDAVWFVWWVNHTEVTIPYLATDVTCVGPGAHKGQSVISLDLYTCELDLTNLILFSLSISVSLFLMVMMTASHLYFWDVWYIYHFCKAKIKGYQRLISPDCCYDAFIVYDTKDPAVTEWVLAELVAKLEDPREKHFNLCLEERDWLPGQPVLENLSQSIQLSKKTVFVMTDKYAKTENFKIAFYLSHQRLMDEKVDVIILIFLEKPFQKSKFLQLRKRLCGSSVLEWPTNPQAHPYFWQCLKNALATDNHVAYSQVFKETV
Briefly: TLR7 inhibition reporter assay (HEK-Blue cells, secreted embryonic alkaline phosphatase reporter). The note with it: HEK-Blue cells overexpressing human TLR7, stimulated with gardiquimod 7.5 μM; read-out: TLR 7 IC50. An outline of the steps:
(§1)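 Steps: seed receptor-specific HEK-Blue cells; add compound, 0.05 nM–50 μM; wait 30 min at room temperature; add final gardiquimod 7.5 μM, R848 15.9 μM or ODN2006 5 nM for TLR7, TLR8 or TLR9; incubate 22 h at 37 °C; detect NF-κB/AP-1-driven SEAP.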

A further assay deals with T2, human TLR9 (Homo sapiens, UniProt Q9NR96).
T2 construct: host or cells: HEK-Blue cells (HEK293-derived reporter line)
T2 sequence (Q9NR96 26-1032): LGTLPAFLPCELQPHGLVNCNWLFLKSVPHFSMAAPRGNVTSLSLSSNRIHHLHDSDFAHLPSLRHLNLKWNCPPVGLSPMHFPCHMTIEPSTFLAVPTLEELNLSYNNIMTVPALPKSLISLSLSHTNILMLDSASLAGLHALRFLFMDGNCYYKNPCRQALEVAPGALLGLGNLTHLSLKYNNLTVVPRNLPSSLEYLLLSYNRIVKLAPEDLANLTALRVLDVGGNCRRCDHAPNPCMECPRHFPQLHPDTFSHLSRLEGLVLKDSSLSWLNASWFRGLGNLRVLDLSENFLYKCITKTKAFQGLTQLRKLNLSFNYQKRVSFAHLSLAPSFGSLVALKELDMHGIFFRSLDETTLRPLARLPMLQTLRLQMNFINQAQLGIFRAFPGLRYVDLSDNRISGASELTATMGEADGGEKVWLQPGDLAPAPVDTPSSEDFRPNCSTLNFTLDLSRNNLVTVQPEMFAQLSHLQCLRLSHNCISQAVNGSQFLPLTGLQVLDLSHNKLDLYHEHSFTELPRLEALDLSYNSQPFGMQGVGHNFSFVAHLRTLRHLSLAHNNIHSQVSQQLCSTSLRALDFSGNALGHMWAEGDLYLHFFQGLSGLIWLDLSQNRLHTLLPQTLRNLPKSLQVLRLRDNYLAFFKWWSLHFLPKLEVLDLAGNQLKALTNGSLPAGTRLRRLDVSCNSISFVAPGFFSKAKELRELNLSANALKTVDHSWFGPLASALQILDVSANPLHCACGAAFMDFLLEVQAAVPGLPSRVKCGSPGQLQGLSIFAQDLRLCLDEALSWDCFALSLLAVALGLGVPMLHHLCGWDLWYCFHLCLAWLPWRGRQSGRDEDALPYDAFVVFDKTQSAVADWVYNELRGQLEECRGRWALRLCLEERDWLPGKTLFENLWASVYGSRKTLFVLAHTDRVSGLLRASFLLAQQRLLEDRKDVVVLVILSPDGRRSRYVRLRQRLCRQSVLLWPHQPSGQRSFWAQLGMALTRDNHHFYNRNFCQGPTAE
Description: TLR9 inhibition reporter assay (HEK-Blue cells, secreted embryonic alkaline phosphatase reporter). The procedure, abridged:
as §1

The target in another assay is T3, human TLR8 (Homo sapiens, UniProt Q9NR97).
T3 construct: host or cells: HEK-Blue cells (HEK293-derived reporter line)
T3 sequence (Q9NR97 27-1041): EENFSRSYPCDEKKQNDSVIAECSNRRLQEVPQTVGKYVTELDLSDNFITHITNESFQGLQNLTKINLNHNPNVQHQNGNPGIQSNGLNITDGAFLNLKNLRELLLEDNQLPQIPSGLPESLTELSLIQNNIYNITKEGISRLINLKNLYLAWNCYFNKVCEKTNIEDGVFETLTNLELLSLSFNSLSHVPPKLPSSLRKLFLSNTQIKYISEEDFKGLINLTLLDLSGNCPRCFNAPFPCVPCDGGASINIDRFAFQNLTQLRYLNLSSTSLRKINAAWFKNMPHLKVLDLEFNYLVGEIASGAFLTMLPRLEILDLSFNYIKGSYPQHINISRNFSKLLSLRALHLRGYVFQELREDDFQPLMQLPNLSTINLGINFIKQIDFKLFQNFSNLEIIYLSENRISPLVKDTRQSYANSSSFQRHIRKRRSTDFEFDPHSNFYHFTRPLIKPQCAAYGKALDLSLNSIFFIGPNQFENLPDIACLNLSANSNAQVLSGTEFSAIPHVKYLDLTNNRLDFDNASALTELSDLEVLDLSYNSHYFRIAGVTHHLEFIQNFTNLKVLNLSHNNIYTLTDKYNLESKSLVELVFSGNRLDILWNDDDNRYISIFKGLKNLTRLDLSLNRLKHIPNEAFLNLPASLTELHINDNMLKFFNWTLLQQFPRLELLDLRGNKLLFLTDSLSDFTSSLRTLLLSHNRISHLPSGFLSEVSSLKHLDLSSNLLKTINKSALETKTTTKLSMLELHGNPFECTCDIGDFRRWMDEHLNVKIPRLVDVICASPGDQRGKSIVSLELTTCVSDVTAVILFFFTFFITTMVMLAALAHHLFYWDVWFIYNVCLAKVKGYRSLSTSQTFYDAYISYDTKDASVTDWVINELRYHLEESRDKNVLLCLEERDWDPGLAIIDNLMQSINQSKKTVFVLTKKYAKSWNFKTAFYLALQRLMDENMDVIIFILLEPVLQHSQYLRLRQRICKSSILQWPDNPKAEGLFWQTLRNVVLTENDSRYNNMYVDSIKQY
Description: TLR8 inhibition reporter assay (HEK-Blue cells, secreted embryonic alkaline phosphatase reporter). The settings on record: HEK-Blue cells overexpressing human TLR8, stimulated with R848 15.9 μM; read-out: TLR 8 IC50. An outline of the steps:
as §1

Where [1] appears, read: HEK-Blue cells overexpressing human TLR9, stimulated with ODN2006 5 nM, read-out: TLR 9 IC50.
[2] abbreviates: HEK-Blue human TLR9 reporter cells.

`Cc1cc(C2CCN(C3CCCN(C4COC4)CC3)CC2)cc2c1nc(-c1ccc(S(C)(=O)=O)cc1)n2C` (stereo not shown) [Example 304, 1,4-dimethyl-2-(4-(methylsulfonyl)phenyl)-6-(1-(1-(oxetan-3-yl)azepan-4-yl)piperidin-4-yl)-1H-benzo[d]imidazole]: the IC50 was 12300 nM at human TLR7, 180 nM at human TLR9 (setting [1]), 180 nM against human TLR9 (setting [2]) and > 50000 nM on human TLR8.

With `COCCN1CCC(N2CCC(c3cc4c(cc3F)nc(-c3ccc(S(C)(=O)=O)cc3)n4C)CC2)CC1` [Example 227, 5-fluoro-6-(1′-(2-methoxyethyl)-[1,4′-bipiperidin]-4-yl)-1-methyl-2-(4-(methylsulfonyl)phenyl)-1H-benzo[d]imidazole], the IC50 at human TLR7 was 27400 nM; at human TLR9 it was 410 nM; at human TLR9 (setting [1]), 407 nM; on human TLR8, > 50000 nM.

Turning to `Cn1c(-c2ccc(S(C)(=O)=O)cc2)nc2cc(C3CCN(C4CCN(C5CC5)CC4)CC3)cc(F)c21` [Example 202, 5-(1′-cyclopropyl-[1,4′-bipiperidin]-4-yl)-7-fluoro-1-methyl-2-(4-(methylsulfonyl)phenyl)-1H-benzo[d]imidazole], the IC50 on human TLR7 is > 50000 nM; on human TLR9, 500 nM; at human TLR9 (setting [1]) it was 502 nM; on human TLR8 it was > 50000 nM.

As to `Cn1c(-c2ccc(S(C)(=O)=O)cc2)nc2cc(C3CCN(C4CC5CCC(C4)N5C4COC4)CC3)cc(F)c21` (single isomer, unassigned) [Example 214, 7-fluoro-1-methyl-2-(4-(methylsulfonyl)phenyl)-5-(1-(8-(oxetan-3-yl)-8-azabicyclo[3.2.1]octan-3-yl)piperidin-4-yl)-1H-benzo[d]imidazole], the IC50 at human TLR7 is > 50000 nM; against human TLR9 it was 4700 nM; on human TLR9 (setting [1]) it was 4660 nM; at human TLR8 it was > 50000 nM.

For `COc1ccc(-c2nc3c(C)cc(C4CCN(C5CC6CCC(C5)N6C5COC5)CC4)cc3n2C)cc1OC` (single isomer, unassigned) [Example 165, 2-(3,4-dimethoxyphenyl)-1,4-dimethyl-6-(1-(8-(oxetan-3-yl)-8-azabicyclo[3.2.1]octan-3-yl)piperidin-4-yl)-1H-benzo[d]imidazole], the IC50 at human TLR7 is > 25000 nM; on human TLR9 it was 1300 nM; at human TLR9 (setting [1]) it was 1300 nM; at human TLR8, > 25000 nM.

For `Cc1cc(C2CCN(C3CCN(CC(C)C)CC3)CC2)cc2[nH]c(-c3ccc4c(c3)OCCO4)nc12` [Example 62, 2-(2,3-dihydrobenzo[b][1,4]dioxin-6-yl)-6-(1′-isobutyl-[1,4′-bipiperidin]-4-yl)-4-methyl-1H-benzo[d]imidazole], the IC50 at human TLR7 is 740 nM; at human TLR9 (HEK-Blue cells overexpressing human TLR9, stimulated with ODN2006 5 nM, 22 hour incubation, reporter readout), 350 nM; on human TLR9 (setting [1]), 345 nM; at human TLR8, > 50000 nM.

For the compound `Cn1c(-c2ccc(S(C)(=O)=O)cc2)nc2c(F)cc(C3CCN(C4CC5CCC(C4)N5C4CCC4)CC3)cc21` (single isomer, unassigned) [Example 292, 6-(1-(8-cyclobutyl-8-azabicyclo[3.2.1]octan-3-yl)piperidin-4-yl)-4-fluoro-1-methyl-2-(4-(methylsulfonyl)phenyl)-1H-benzo[d]imidazole], the IC50 on human TLR7 is 21700 nM; at human TLR9 (setting [1]), 147 nM; against human TLR9 (setting [2]) it was 150 nM; at human TLR8, > 50000 nM.

As for `CC(C)CN1C2CCC1CC(N1CCC(c3ccc4c(nc(-c5ccc(S(C)(=O)=O)cc5)n4C)c3F)CC1)C2` (single isomer, unassigned) [Example 190, 4-fluoro-5-(1-(8-isobutyl-8-azabicyclo[3.2.1]octan-3-yl)piperidin-4-yl)-1-methyl-2-(4-(methylsulfonyl)phenyl)-1H-benzo[d]imidazole], the IC50 on human TLR7 was > 50000 nM; at human TLR9, 2600 nM; on human TLR9 (setting [1]), 2630 nM; at human TLR8, > 50000 nM.

Regarding `Cc1cc(C2CCN(C3CC4CCC(C3)N4C3CCC3)CC2)cc2[nH]c(-c3ccc(S(C)(=O)=O)cc3)nc12` (stereo not shown) [Example 334, 6-(1-(8-cyclobutyl-8-azabicyclo[3.2.1]octan-3-yl)piperidin-4-yl)-4-methyl-2-(4-(methylsulfonyl)phenyl)-1H-benzo[d]imidazole], the IC50 on human TLR7 was > 50000 nM; at human TLR9 (setting [1]), 296 nM; against human TLR9 (setting [2]), 300 nM; at human TLR8, > 50000 nM.

On to `COCCN1C2CCC1CC(N1CCC(c3cc(F)c4nc(-c5ccc(S(C)(=O)=O)cc5)n(C)c4c3)CC1)C2` (single isomer, unassigned) [Example 291, 4-fluoro-6-(1-(8-(2-methoxyethyl)-8-azabicyclo[3.2.1]octan-3-yl)piperidin-4-yl)-1-methyl-2-(4-(methylsulfonyl)phenyl)-1H-benzo[d]imidazole], for which the IC50 on human TLR7 is 1800 nM; on human TLR9 (setting [1]), 57 nM; on human TLR9 (setting [2]) it was 57 nM; at human TLR8, 34800 nM.
